The subject of experiment [1] is Staphylococcus aureus 9203. Kind of experiment: S. aureus intracellular killing assay in bovine PMN. It is filed as cell-based. As to conditions: overnight incubation (18 to 21 hours). Here is the method:
The therapeutic effect of the rifamycin derivative (1) was determined by S. aureus intracellular killing assay in bovine polymorphonuclear neutrophil (PMN).
The procedure for PMN isolation was as described in Carlton et al. (Proc. Soc. Exp. Biol. Med. 142: 853-858 (1973)).
Bovine blood collected by venipuncture in 50-ml syringes containing 1.5% EDTA (pH 6.8) was centrifuged at 1,000×g for 25 min. The plasma-buffer layer and the top few millileters were discarded. The packed erythrocyte fraction was pooled in 0.8% NaCl-phosphate buffer (pH 6.8) and 10 ml was placed in 20 ml of sterile water for 40 seconds to lyse the erythrocytes. Immediately thereafter, 10 ml of a 2.7% NaCl-phosphate buffer solution was added to restore isotonicity. The leukocytes, consisting of ≦84% PMNs, were washed twice and suspended in HBSS. PMNs were adjusted to a final concentration of 10^7 cells per ml.
The intracellular killing assay was carried out as described in Sanchez et al. (Antimicrobial Agents and Chemotherapy 29(4): 634-638 (1986)).
Bovine blood PMNs and bacteria (1:1) were suspended in HBSS containing 10% heterologous bovine serum. The mixture was incubated for 90 minutes at 37° C. in Erlenmeyer flasks with rotational mixing at 110 rpm. Lysostaphin (5 μg/ml) was added to the mixture for the final 15 minutes of incubation. The infected PMNs were washed 3 times by low-speed centrifugation and suspended in HBSS. Cells were pipetted (1 ml) into each well of a six-well cluster dish (Bellco Glass, Inc., Vineland, N.J.) at 5×10^6 PMNs per well. PMNs were allowed to attach and form a monolayer for 10 minutes at 37° C. The supernatant fluid with unattached cells was discarded, and 2 ml of fresh HBSS was added to each well. The rifamycin derivatives to be tested were then added to the wells (one six-well plate per drug). These derivatives were dissolved in dimethylsulfoxide, and then diluted in HBSS to final solvent concentrations of 0.01% (vol/vol) or less.
After overnight incubation (18 to 21 hours) at 37° C. with 1% CO2, lysostaphin (5 μg/ml) was added to each well for 15 min (at 37° C.) to kill extracellular bacteria. The monolayers were washed with HBSS, and the cells were lysed by addition of 1 ml of water to each well. The number of viable bacteria was then estimated by plate counts on brain heart infusion agar. […] The results are shown in Table 2, wherein R is the alkyl group in the rifamycin derivative (1).

The test system of experiment [2] is S. aureus 30857, a rifampin-resistant isolate. Kind of experiment: MIC, microbroth dilution, strain 30857. It is filed as cell-based, Staphylococcus aureus. The following applies: for MIC: strain 30857. Here is the method: (§1) Four S. aureus strains were used: S. aureus 30857, a rifampin-resistant isolate: S. aureus 6097, a strain used in the mouse mastitis test and originally from a case of gangrenous bovine mastitis; S. aureus B83-1, derived from the Newbould 305 strain; and S. aureus ATCC 29213, the in vitro control stain recommended by NCCLS.
(§2) All S. aureus strains were maintained on 3 mm glass beads immersed in trypticase soy broth (BBL Microbiology Systems, Cockeysville, Md.) with 10% glycerol and held at −70° C. until revived. Prior to testing, the strains were subcultured on tryptose blood agar base (Difco, Detroit, Mich.) supplemented with 5% sheep blood for 24 hours at 35° C.
(§3) These compounds were dissolved in 95% ethanol, a solution which was then diluted to 10% ethanol with sterile distilled water. Further dilutions were conducted in water.
(§4) MIC (Minimum Inhibitory Concentration) determinations were performed using the microbroth dilution method. (National Committee for Clinical Laboratory Standards, 1990 Approved Standard […]. Methods for dilution antimicrobial susceptibility tests for bacteria that grow aerobically, 3rd edition. National Committee for Clinical Laboratory Standards, Villanova, Pa.) The results are shown in Table 3, wherein R is the alkyl group R in the rifamycin derivative (1).

Experiment [3] deals with S. aureus B83-1. The experiment can be described thus: MIC, microbroth dilution, strain B83-1. Type of experiment: cell-based, Staphylococcus aureus. Here is the method:
as §1, §2, §3, §4

In experiment [4] the test system is S. aureus 30857, a rifampin-resistant isolate. It is filed as cell-based, Staphylococcus aureus. As to conditions: strain 30857. Here is the method:
(§5) The mutation frequency for development of resistance to the rifamycin derivative (1) as compared to rifampin was determined with selected Staphylococcus aureus strains.
as §1, §2, §3
(§6) The mutation frequency for development of resistance to the compounds tested was determined by the following method. A single colony of each strain was removed from the surface of a blood agar plate with a cotton swab, suspended in 5 ml of Mueller-Hinton broth (BBL), and streaked on the entire surface of five Mueller-Hinton agar plates. The plates were incubated overnight under aerobic conditions at 35° C., growth was removed from the agar using a sterile cotton swab, and the bacteria were suspended in 10 ml physiological saline. This bacterial suspension was the inoculum for the mutation frequency determinations. Standard plate counts were performed on the inoculum by performing serial dilutions and plating a 0.1 ml aliquot on the surface of ten Mueller-Hinton agar plates at each concentration. The plates were incubated for 18-24 hours at 35° C. under aerobic conditions and colony counts performed. Mean bacterial counts were calculated for the inoculum with each strain.
(§7) A 0.1 ml aliquot of the inoculum was then used to inoculate the entire surface of ten plates each containing 1, 10, and 100 μg/ml of the test antimicrobial agents. The plates were incubated for 18-24 hours at 35° C. under aerobic conditions and colony counts performed. Mean bacterial counts were calculated for each antimicrobial concentration and the mutation frequency calculated by dividing the number of colonies which grew on the drug containing media by the inoculum size.

The next experiment concerns S. aureus 6097. Kind of experiment: Mutation frequency for resistance, strain 6097. Type of experiment: cell-based, Staphylococcus aureus. Here is the method:
as §5, §1, §2, §3, §6, §7

Experiment [5] has as its system S. aureus B83-1. The experiment can be described thus: Mutation frequency for resistance, strain B83-1. Type of experiment: cell-based, Staphylococcus aureus. The method, then:
as §5, §1, §2, §3, §6, §7

Converted amounts (≈) assume the structure as drawn. Where two headings read alike, the source gives them in different places.

In the case of `CO[C@H]1/C=C/O[C@@]2(C)Oc3c(C)c(O)c4c(O)c(c(/C=N/N5CCN(C)CC5)c(O)c4c3C2=O)NC(=O)/C(C)=C\C=C\[C@H](C)[C@H](O)[C@@H](C)[C@@H](O)[C@@H](C)[C@H](OC(C)=O)[C@@H]1C` [Rifampin, reference compound], the “% reduction” value in experiment [1] (1X MIC) is listed as 83.0%; in experiment [1] (100X MIC), 85.0%. Moreover, the “CFU/ml ISD (×10^3)” value is recorded as 0.6 ± 0.3 CFU/ml (×10^3) in experiment [1] (1X MIC) and 0.5 ± 0.2 CFU/ml (×10^3) in experiment [1] (100X MIC). The MIC (as a rule, the lowest concentration that inhibits growth of the organism) in experiment [2] (Staphylococcus aureus, read-out: MIC) is more than 4000 ng/mL; with S. aureus B83-1 [3] (Staphylococcus aureus, B831, read-out: MIC), 1.9 ng/mL (≈ 2.31 nM). Further, the Mutation frequency is recorded as >1.0 × 10^−7 in experiment [4] (1 μg/ml); >1.0 × 10^−7 in experiment [4] (10 μg/ml); >1.0 × 10^−7 in experiment [4] (100 μg/ml); 1.2 × 10^−8 in the experiment on S. aureus 6097 (1 μg/ml); 2.0 × 10^−8 with S. aureus 6097 (10 μg/ml); 4.9 × 10^−9 in the experiment with S. aureus 6097 (100 μg/ml). The results for the Mutation frequency in the experiment with S. aureus B83-1 [5] (1 μg/ml), in the experiment with S. aureus B83-1 [5] (10 μg/ml) and in the experiment on S. aureus B83-1 [5] (100 μg/ml) were 3.7 × 10^−8, 4.5 × 10^−8 and 1.9 × 10^−8, respectively.

Turning to `COC1/C=C/OC2(C)Oc3c(C)c(O)c4c(=O)c(c5oc6cc(N7CCN(C)CC7)cc(O)c6nc-5c4c3C2=O)NC(=O)/C(C)=C\C=C\C(C)C(O)C(C)C(O)C(C)C(OC(C)=O)C1C` (stereo not shown) [R = methyl], the “% reduction” value in experiment [1] (1X MIC) worked out at 92.0%; in experiment [1] (100X MIC), 100%. Besides, the “CFU/ml ISD (×10^3)” value in experiment [1] (1X MIC) is reported as 0.3 ± 0.1 CFU/ml (×10^3); in experiment [1] (100X MIC), 0.0 CFU/ml (×10^3). In experiment [2] (MIC, in words), the “effectiveness against rifampin-resistant strains” value is reported as “effective against rifampin-resistant strains”. Besides, the values for the minimum inhibitory concentration (MIC) (in experiment [2]; against S. aureus B83-1 [3]) were 500 ng/mL (≈ 556 nM) and 0.061 ng/mL (≈ 0.0679 nM), respectively. Further, the Mutation frequency in experiment [4] (1 μg/ml) is on record as <1.6 × 10^−10; in experiment [4] (10 μg/ml), <1.6 × 10^−10; in experiment [4] (100 μg/ml), <1.6 × 10^−10; with S. aureus 6097 (1 μg/ml), 4.0 × 10^−8; with S. aureus 6097 (10 μg/ml) it was <1.8 × 10^−10; with S. aureus 6097 (100 μg/ml), <1.8 × 10^−10. The Mutation frequency in the experiment with S. aureus B83-1 [5] (1 μg/ml) is 1.5 × 10^−8; in the experiment on S. aureus B83-1 [5] (10 μg/ml) it was <1.8 × 10^−9; in the experiment on S. aureus B83-1 [5] (100 μg/ml) it was <1.8 × 10^−9.

For the origin of these results see patent publication US6486161B1, “Use of rifamycin derivative for treating mastitis in a domestic animal” (priority 2000, dated 2002).
